Results from patent publication US12187703B2, “Crystalline forms of N-(3-(2-(2-hydroxyethoxy)-6-morpholinopyridin-4-yl)-4-methvlphenyl)-2 (trifluoromethyl)isonicotinamide as Raf inhibitors for the treatment of cancer” (NOVARTIS AG, priority 2019, dated 2025).
In brackets after ≈: the same amount, converted by molar mass. Where two headings read alike, the source gives them in different places. Blank lines part the entries; values can stand above or below the compound they belong to.

Legend:
Format in all cases: physicochemical
[1] = Water activity experiments of Form A
Protocol: About 100 mg of Form A is equilibrated with 0.5 mL solvent by stirring at RT or 50° C. The slurries are filtered. The wet cake is investigated by XRPD.

[2] = Solubility at 25° C., 24 hours slurry; conditions: for Final pH: 25° C.; for solubility at 24 h: 25 °C, thermodynamic from solid, read-out: Solubility at 25° C.
Protocol: A sample was weighed in a glass vial and solvent added to make a slurry followed by stirring or shaking at 25° C. for 24 hours. The amount of sample and solvents depends on the target concentration, e.g. if the target concentration is 10 mg/mL, the weight of the sample should be 10 mg and the amount of solvent volume should be 1 mL. The solid and liquid are separated by centrifugation at 13000 rpm for 2 minutes with 0.2 μm membrane. The filtrate is then used for the solubility test after appropriate dilution. The diluent is from the UPLC method. The solids obtained after equilibration were analyzed by XRPD after being dried at 40° C. under vacuum for 2 hours. DSC/TGA analysis was conducted for selected samples.

[3] = Particle size distribution by Fraunhofer light diffraction; conditions: pilot manufacture batch, kilogram scale; listed as Modification A
Protocol: (§1) Pilot manufacture batches producing Modification HA and Form A on kilogram scale were compared for their respective bulk powder properties. The particle size distribution (PSD) was determined according to the corresponding method for release. Other measurements were performed using technical methods known in the art or as described herein.
A few drops of the dispersing aid were added to an appropriate amount of test substance. The mixture was mixed intensively, e.g. on a vortex mixer, in order to wet the substance thoroughly and to form a smooth and homogeneous paste. The resultant paste was diluted with the dispersion liquid to a final volume of 3-6 ml and the dispersion mixed again. The cumulative volume distribution was determined using a laser light diffraction instrument as stated above. The parameters could be adjusted accordingly so that the test dispersion is representative, homogeneous and well dispersed.
Particle sizes were determined at the undersize values of 10%, 50% and 90% (×10, ×50, ×90), and additional values in question, from the cumulative volume distribution.

[4] = Bulk density and flowability with ring shear tester; conditions: listed as Modification A
Protocol: as §1

[5] = Behaviour under compression, grinding and granulation with water
[6] = Hygroscopicity, storage and solubility conclusions; conditions: for Hygroscopicity: non-hygroscopic defined as water uptake at most 2 w-%, 0 to 95% RH, 25° C. (GMS/DVS)
Description: The term “non-hygroscopic” as used herein refers to a compound showing a water uptake of at most 2 w-% in the sorption cycle when measured with GMS (or DVS) at a relative humidity in the range of from 0 to 95% RH and a temperature of (25.0±0.1) ° C., based on the weight of the compound. Non-hygroscopic is preferably up to 0.2%.

[7] = Stability testing, solid state bulk (UPLC, color, XRPD, TGA)
Protocol: (§2) X-ray powder diffraction (XRPD) analysis of all polymorph forms was performed using a Bruker D8 Discover x-ray diffractometer with XYZ stage. Measurements were taken at about 40 kV and 1 mA under the following conditions:
(§3) Crystalline Monohydrate Form HA was analysed by thermogravimetric analysis (TGA) using a Discovery Thermogravimetric Analysis Calorimeter from TA instruments under the following conditions (see Table 6).
(§4) No notable change in chemical purity, nor change in XRPD, nor change in TGA, was observed.

[8] = as above; design: key: A: No change of color; conditions: Solid state
Protocol: as §2, §3, §4

[9] = as above; design: key: A: No change of color; B: Slight discoloration
Protocol: as §2, §3, §4

[10] = Humidity exposure of amorphous form; conditions: ambient humidity or 92% RH
[11] = 50° C., water 0%/IPA 100%, aw 0.000
[12] = 50° C., water 1%/IPA 99%, aw 0.124
[13] = 50° C., water 3.2%/IPA 96.8%, aw 0.324
[14] = 50° C., water 100%/IPA 0%, aw 1.000
[15] = RT, water 0%/IPA 100%, aw 0.000
[16] = RT, water 100%/IPA 0%, aw 1.000
[17] = Solid state, 1 week 50° C., closed container
[18] = Solid state, 1 week 50° C./75% r.h.
[19] = Solid state, 1 week 80° C., closed container
[20] = Solid state, 1 week 80° C./75% r.h.
[21] = Xenon light (approx. 1200 kLuxh)

After 1 d equilibration (wet cake XRPD) [1, 11]: Form A | After 5 d equilibration (wet cake XRPD) [1, 11]: Form A | After 1 d equilibration (wet cake XRPD) [1, 12]: Form A | After 5 d equilibration (wet cake XRPD) [1, 12]: Form A | After 1 d equilibration (wet cake XRPD) [1, 13]: Form A | After 5 d equilibration (wet cake XRPD) [1, 13]: Form A | After 1 d equilibration (wet cake XRPD) [1, 14]: Form A | After 5 d equilibration (wet cake XRPD) [1, 14]: Form A | After 1 d equilibration (wet cake XRPD) [1, 15]: Form A | After 5 d equilibration (wet cake XRPD) [1, 15]: Form A | After 1 d equilibration (wet cake XRPD) ([1]; RT, water 1%/IPA 99%, aw 0.120): Form A | After 5 d equilibration (wet cake XRPD) ([1]; RT, water 1%/IPA 99%, aw 0.120): Form A | After 1 d equilibration (wet cake XRPD) ([1]; RT, water 3.2%/IPA 96.8%, aw 0.316): Form A + HA | After 1 d equilibration (wet cake XRPD) [1, 16]: Form A | After 5 d equilibration (wet cake XRPD) [1, 16]: Form A | Time for complete conversion of Form A to Monohydrate HA ([1]; water activity of 0.3, room temperature): 5 days | Solubility at 25° C. ([2]; 0.01N HCl, pH 2.0): 1.4 µg/mL (≈ 2.79 µM) | Final pH ([2]; 0.01N HCl, pH 2.0): 2.16 | Solubility at 25° C. ([2]; 0.1N HCl, pH 1.0): 292.9 µg/mL (≈ 583 µM) | Final pH ([2]; 0.1N HCl, pH 1.0): 1.07 | Final pH ([2]; Acetate buffer, pH 4.7): 4.82 | Final pH ([2]; Borate buffer, pH 9.0): 9.01 | solubility at 24 h ([2]; FaSSIF, pH 6.5, fassif, FaSSIF, pH 6.5): 0.8 µg/mL (≈ 1.59 µM) | Final pH ([2]; FaSSIF, pH 6.5): 6.45 | Solubility at 25° C. ([2]; FeSSIF, pH 5.8): 41.3 µg/mL (≈ 82.2 µM) | Final pH ([2]; FeSSIF, pH 5.8): 5.82 | solubility at 24 h ([2]; N,N-dimethylformamide, organic solvent or mixture, N,N-Dimethylformamide): > 10000 µg/mL | Final pH ([2]; Phosphate buffer, pH 6.8): 6.74 | Solubility at 25° C. ([2]; SGF, pH 2.0): 22 µg/mL (≈ 43.8 µM) | Final pH ([2]; SGF, pH 2.0): 2.05 | Final pH ([2]; Water): 8.93 | solubility at 24 h ([2]; acetate buffer, pH 4.7, aqueous buffer, Acetate buffer, pH 4.7): < 0.3 µg/mL | solubility at 24 h ([2]; acetonitrile, organic solvent or mixture, Acetonitrile): > 10000 µg/mL | solubility at 24 h ([2]; borate buffer, pH 9, aqueous buffer, Borate buffer, pH 9.0): < 0.3 µg/mL | solubility at 24 h ([2]; dichloromethane, organic solvent or mixture, Dichloromethane): > 10000 µg/mL | solubility at 24 h ([2]; ethanol, organic solvent or mixture, Ethanol): > 10000 µg/mL | solubility at 24 h ([2]; ethyl acetate, organic solvent or mixture, Ethyl acetate): > 10000 µg/mL | solubility at 24 h ([2]; phosphate buffer, pH 6.8, aqueous buffer, Phosphate buffer, pH 6.8): < 0.3 µg/mL | solubility at 24 h ([2]; water, water, Water): < 0.3 µg/mL | Diameter X of PSD measured during release, X50 [3]: X50: 8 μm | Diameter X of PSD measured during release, X90 [3]: X90: 44 μm | Bulk flowability with ring shear tester, rating in words ([4]; under 1250 Pa normal stress): “very cohesive” | Technical measurement of bulk flowability with ring shear tester ([4]; under 1250 Pa normal stress): 1.45 | Technical measurement of bulk density with ring shear tester ([4]; under no consolidation stress): 71 kg/m^3 | Physical form upon granulation with water or compression [5]: remains unchanged | Crystallinity when compressed ([5]; pressures of 3 to 6 MPa): slight decrease in crystallinity | Relative solubility of forms [6]: more soluble than Form HA | Solubility, overall rating [6]: adequate solubility | Stability when stored in bulk quantities [6]: stable when stored in bulk quantities | Hygroscopicity [6]: non-hygroscopic
SMILES: Cc1ccc(NC(=O)c2ccnc(C(F)(F)F)c2)cc1-c1cc(OCCO)nc(N2CCOCC2)c1 [Form A, N-(3-(2-(2-hydroxyethoxy)-6-morpholinopyridin-4-yl)-4-methylphenyl)-2-(trifluoromethyl)isonicotinamide]

Bulk (XRPD) [7, 17]: no change | DP %, Bulk (UPLC) [7, 17]: 2.46% | Bulk (XRPD) [7, 18]: no change | DP %, Bulk (UPLC) [7, 18]: 2.49% | Bulk (XRPD) [7, 19]: no change | DP %, Bulk (UPLC) [7, 19]: 2.12% | Bulk (XRPD) [7, 20]: changed | DP %, Bulk (UPLC) [7, 20]: 3.32% | Bulk (XRPD) [7, 21]: no change | DP %, Bulk (HPLC) [7, 21]: 3.66% | Stability upon exposure to elevated temperature or humidity ([7]; degradation products and physical form): relatively stable | Solubility at 25° C. ([2]; 0.01N HCl, pH 2.0): 141.2 µg/mL (≈ 281 µM) | Final pH ([2]; 0.01N HCl, pH 2.0): 2.04 | Solubility at 25° C. ([2]; 0.1N HCl, pH 1.0): 1026.4 µg/mL (≈ 2040 µM) | Final pH ([2]; 0.1N HCl, pH 1.0): 1.02 | Solubility at 25° C. ([2]; Acetate buffer, pH 4.7): < 0.2 µg/mL | Final pH ([2]; Acetate buffer, pH 4.7): 4.78 | Solubility at 25° C. ([2]; Acetonitrile): >10000 µg/mL | Solubility at 25° C. ([2]; Borate buffer, pH 9.0): < 0.2 µg/mL | Final pH ([2]; Borate buffer, pH 9.0): 8.97 | Solubility at 25° C. ([2]; Dichloromethane): >10000 µg/mL | Solubility at 25° C. ([2]; Ethanol): >10000 µg/mL | Solubility at 25° C. ([2]; Ethyl acetate): >10000 µg/mL | Solubility at 25° C. ([2]; FaSSIF, pH 6.5): 1.4 µg/mL (≈ 2.79 µM) | Final pH ([2]; FaSSIF, pH 6.5): 6.91 | Solubility at 25° C. ([2]; FeSSIF, pH 5.8): 137 µg/mL (≈ 273 µM) | Final pH ([2]; FeSSIF, pH 5.8): 6.08 | Solubility at 25° C. ([2]; N,N-Dimethylformamide): >10000 µg/mL | Solubility at 25° C. ([2]; Phosphate buffer, pH 6.8): < 0.2 µg/mL | Final pH ([2]; Phosphate buffer, pH 6.8): 6.75 | Solubility at 25° C. ([2]; SGF, pH 2.0): 2.1 µg/mL (≈ 4.18 µM) | Final pH ([2]; SGF, pH 2.0): 2.02 | Solubility at 25° C. ([2]; Water): < 0.2 µg/mL | Final pH ([2]; Water): 8.11 | solubility at 24 h ([2]; heptane, organic solvent or mixture, Heptane): < 0.2 µg/mL | XRPD pattern upon grinding, compression and granulation with water [5]: did not change | Relative solubility of forms [6]: more soluble than Form A | Solubility, overall rating [6]: adequate solubility | Stability when stored in bulk quantities [6]: stable when stored in bulk quantities | Hygroscopicity [6]: non-hygroscopic | Color (CL) ([8]; 1 week 50° C., closed container): A | Color (CL) ([8]; 1 week 50° C./75% r.h.): A | Color (CL) ([8]; 1 week 80° C., closed container): A | Color (CL) [9, 20]: B | Color (CL) [9, 21]: B
SMILES: Cc1ccc(NC(=O)c2ccnc(C(F)(F)F)c2)cc1-c1cc(OCCO)nc(N2CCOCC2)c1 [Form B, N-(3-(2-(2-hydroxyethoxy)-6-morpholinopyridin-4-yl)-4-methylphenyl)-2-(trifluoromethyl)isonicotinamide]

SMILES: Cc1ccc(NC(=O)c2ccnc(C(F)(F)F)c2)cc1-c1cc(OCCO)nc(N2CCOCC2)c1 [amorphous form, N-(3-(2-(2-hydroxyethoxy)-6-morpholinopyridin-4-yl)-4-methylphenyl)-2-(trifluoromethyl)isonicotinamide]
Physical form stability under humidity [10]: remains stable and does not convert to HA
